Measured values: the supplement of paper PMC13207355

What was measured:
Conditions in all cases: exposure time: 72 h
[1] = test system: E57 (patient-derived glioblastoma stem cells of mesenchymal subtype); test: phenotypic distance (Euclidean, principal components) from DMSO controls (arbitrary units); higher = stronger morphological change
[2] = test system: E31 (patient-derived glioblastoma stem cells of proneural subtype); test: as above
[3] = test system: E34 (patient-derived glioblastoma stem cells of proneural subtype); test: as above
[4] = test system: E13 (patient-derived glioblastoma stem cells of classical subtype); test: as above
[5] = test system: E21 (patient-derived glioblastoma stem cells of mesenchymal subtype); test: as above
[6] = test system: FT3469 (normal neural stem cell line); test: as above
[7] = test system: E28 (patient-derived glioblastoma stem cells of classical subtype); test: as above
[8] = test system: E57; test: surviving fraction (nuclei count normalised to DMSO); higher = more cells surviving (less toxic)
[9] = test system: E31; test: as above
[10] = test system: E34; test: as above
[11] = test system: E13; test: as above
[12] = test system: E21; test: as above
[13] = test system: FT3469; test: as above
[14] = test system: E28; test: as above
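Wherever phenotypic distance (Euclidean, principal components) from DMSO controls is given: cell Painting imaging in 384-well plates, CellProfiler features reduced to at least 20 principal components, Euclidean distance versus same-plate DMSO vehicle wells (0.1% v/v), median over six images per well.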
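Wherever surviving fraction (nuclei count normalised to DMSO) is given: nuclei counted by high-content imaging of Hoechst-stained cells in laminin-coated 384-well plates, relative to 0.1% DMSO vehicle wells, with staurosporine as cell-death control.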

c1ccc2c(c1)[I+]c1ccccc1-2 [Diphenyleneiodonium chloride]
Conditions	phenotypic distance	surviving fraction
[1], 4.1 nM	1.31	–
[1], 12.3 nM	1.36	–
[1], 37 nM	1.73	–
[1], 111.1 nM	4.12	–
[1], 333.3 nM	6.27	–
[1], 1000 nM	6.54	–
[1], 3000 nM	7.74	–
[2], 4.1 nM	1.12	–
[2], 12.3 nM	1.08	–
[2], 37 nM	2.15	–
[2], 111.1 nM	2.63	–
[2], 333.3 nM	2.78	–
[2], 1000 nM	3.14	–
[2], 3000 nM	4.34	–
[3], 4.1 nM	1.01	–
[3], 12.3 nM	1.55	–
[3], 37 nM	1.65	–
[3], 111.1 nM	2.16	–
[3], 333.3 nM	1.7	–
[3], 1000 nM	3.29	–
[3], 3000 nM	4.68	–
[4], 4.1 nM	1.34	–
[4], 12.3 nM	4.24	–
[4], 37 nM	1.9	–
[4], 111.1 nM	2.21	–
[4], 333.3 nM	3.13	–
[4], 1000 nM	5.26	–
[4], 3000 nM	5.24	–
[5], 4.1 nM	2.03	–
[5], 12.3 nM	1.85	–
[5], 37 nM	1.83	–
[5], 111.1 nM	3.51	–
[5], 333.3 nM	2.93	–
[5], 1000 nM	3.58	–
[5], 3000 nM	4.29	–
[6], 4.1 nM	1.56	–
[6], 12.3 nM	1.64	–
[6], 37 nM	1.95	–
[6], 111.1 nM	1.56	–
[6], 333.3 nM	2.13	–
[6], 1000 nM	2.73	–
[6], 3000 nM	2.8	–
[7], 4.1 nM	0.894	–
[7], 12.3 nM	0.602	–
[7], 37 nM	0.781	–
[7], 111.1 nM	1.28	–
[7], 333.3 nM	2.53	–
[7], 1000 nM	2.98	–
[7], 3000 nM	3.16	–
[8], 4.1 nM	–	0.876
[8], 12.3 nM	–	0.876
[8], 37 nM	–	0.767
[8], 111.1 nM	–	0.426
[8], 333.3 nM	–	0.291
[8], 1000 nM	–	0.266
[8], 3000 nM	–	0.21
[9], 4.1 nM	–	0.886
[9], 12.3 nM	–	0.765
[9], 37 nM	–	0.518
[9], 111.1 nM	–	0.31
[9], 333.3 nM	–	0.371
[9], 1000 nM	–	0.338
[9], 3000 nM	–	0.216
[10], 4.1 nM	–	0.75
[10], 12.3 nM	–	0.634
[10], 37 nM	–	0.521
[10], 111.1 nM	–	0.586
[10], 333.3 nM	–	0.555
[10], 1000 nM	–	0.519
[10], 3000 nM	–	0.411
[11], 4.1 nM	–	0.616
[11], 12.3 nM	–	0.605
[11], 37 nM	–	0.464
[11], 111.1 nM	–	0.47
[11], 333.3 nM	–	0.417
[11], 1000 nM	–	0.331
[11], 3000 nM	–	0.251
[12], 4.1 nM	–	0.827
[12], 12.3 nM	–	0.767
[12], 37 nM	–	0.672
[12], 111.1 nM	–	0.559
[12], 333.3 nM	–	0.548
[12], 1000 nM	–	0.525
[12], 3000 nM	–	0.401
[13], 4.1 nM	–	0.771
[13], 12.3 nM	–	0.707
[13], 37 nM	–	0.742
[13], 111.1 nM	–	0.753
[13], 333.3 nM	–	0.59
[13], 1000 nM	–	0.473
[13], 3000 nM	–	0.449
[14], 4.1 nM	–	0.654
[14], 12.3 nM	–	0.916
[14], 37 nM	–	0.853
[14], 111.1 nM	–	0.524
[14], 333.3 nM	–	0.392
[14], 1000 nM	–	0.319
[14], 3000 nM	–	0.212

Nc1ncn([C@@H]2O[C@H](CO)[C@@H](O)[C@H]2O)c(=O)n1 [5-azacytidine]
Conditions	phenotypic distance	surviving fraction
[1], 4.11523 nM	0.981	–
[1], 12.34567901 nM	1.07	–
[1], 37.037 nM	1.13	–
[1], 111.1111111 nM	1.59	–
[1], 333.333 nM	1.59	–
[1], 1000 nM	3.31	–
[1], 3000 nM	5.71	–
[2], 4.11523 nM	1.21	–
[2], 12.34567901 nM	1.33	–
[2], 37.037 nM	1.03	–
[2], 111.1111111 nM	0.932	–
[2], 333.333 nM	1.18	–
[2], 1000 nM	1.85	–
[2], 3000 nM	3.43	–
[3], 4.11523 nM	0.558	–
[3], 12.34567901 nM	0.75	–
[3], 37.037 nM	1.12	–
[3], 111.1111111 nM	0.943	–
[3], 333.333 nM	1.52	–
[3], 1000 nM	1.39	–
[3], 3000 nM	2.19	–
[4], 4.11523 nM	0.922	–
[4], 12.34567901 nM	0.542	–
[4], 37.037 nM	0.817	–
[4], 111.1111111 nM	1.58	–
[4], 333.333 nM	1.47	–
[4], 1000 nM	3	–
[4], 3000 nM	6.57	–
[5], 4.11523 nM	1.24	–
[5], 12.34567901 nM	5.31	–
[5], 37.037 nM	1.2	–
[5], 111.1111111 nM	1.66	–
[5], 333.333 nM	1.85	–
[5], 1000 nM	2.19	–
[5], 3000 nM	3.53	–
[6], 4.11523 nM	1.08	–
[6], 12.34567901 nM	1.06	–
[6], 37.037 nM	0.921	–
[6], 111.1111111 nM	0.795	–
[6], 333.333 nM	0.957	–
[6], 1000 nM	1.34	–
[6], 3000 nM	2.03	–
[7], 4.11523 nM	0.861	–
[7], 12.34567901 nM	1.19	–
[7], 37.037 nM	1.09	–
[7], 111.1111111 nM	0.941	–
[7], 333.333 nM	0.932	–
[7], 1000 nM	1.03	–
[7], 3000 nM	1.84	–
[8], 4.11523 nM	–	0.959
[8], 12.34567901 nM	–	0.904
[8], 37.037 nM	–	0.961
[8], 111.1111111 nM	–	0.841
[8], 333.333 nM	–	0.78
[8], 1000 nM	–	0.507
[8], 3000 nM	–	0.287
[9], 4.11523 nM	–	0.945
[9], 12.34567901 nM	–	0.84
[9], 37.037 nM	–	0.848
[9], 111.1111111 nM	–	0.9
[9], 333.333 nM	–	0.718
[9], 1000 nM	–	0.644
[9], 3000 nM	–	0.298
[10], 4.11523 nM	–	0.97
[10], 12.34567901 nM	–	1.02
[10], 37.037 nM	–	1.01
[10], 111.1111111 nM	–	1.07
[10], 333.333 nM	–	0.862
[10], 1000 nM	–	0.731
[10], 3000 nM	–	0.643
[11], 4.11523 nM	–	0.808
[11], 12.34567901 nM	–	0.874
[11], 37.037 nM	–	0.939
[11], 111.1111111 nM	–	0.778
[11], 333.333 nM	–	0.755
[11], 1000 nM	–	0.67
[11], 3000 nM	–	0.358
[12], 4.11523 nM	–	0.745
[12], 12.34567901 nM	–	0.93
[12], 37.037 nM	–	0.921
[12], 111.1111111 nM	–	0.871
[12], 333.333 nM	–	0.665
[12], 1000 nM	–	0.6
[12], 3000 nM	–	0.426
[13], 4.11523 nM	–	0.82
[13], 12.34567901 nM	–	0.768
[13], 37.037 nM	–	0.86
[13], 111.1111111 nM	–	0.944
[13], 333.333 nM	–	0.915
[13], 1000 nM	–	0.734
[13], 3000 nM	–	0.665
[14], 4.11523 nM	–	0.899
[14], 12.34567901 nM	–	1.22
[14], 37.037 nM	–	0.711
[14], 111.1111111 nM	–	0.969
[14], 333.333 nM	–	0.753
[14], 1000 nM	–	0.984
[14], 3000 nM	–	0.497
